Laboratory results published in US20240025863A1, “SOS1 PROTEIN DEGRADERS, PHARMACEUTICAL COMPOSITIONS THEREOF, AND THEIR THERAPEUTIC APPLICATIONS” (BioTheryX, Inc., priority 2020, published 2024).
pIC50: −log10 of the molar value. Values belong to the molecule of their own block, whether it stands above or below them.

Key:
Format in all cases: cell-based
[1] = tested on: SW480 cells (G12V); assay: Cell viability assay (CellTiter-Glo), SW480 cells; conditions: Homo sapiens, 72 h; SW480 cells, 3 days incubation, CellTiter-Glo luminescence; read-out: Inhibition of Cancerous Cells IC50 SW480 (G12V)
Procedure: (§1) H358, H23, SW48, and AsPC-1 cells were cultured in RPMI 1640 media supplemented with 10% fetal bovine serum, streptomycin, and penicillin. Lovo and SW480 cells were cultured in DMEM media supplemented with 10% fetal bovine serum, streptomycin, and penicillin. The cell lines were plated in their respective medium supplemented with 2.5% fetal bovine serum, streptomycin, and penicillin. All cell lines were plated in white walled 96-well plates at 2,000 cells/well or 384-well plates at 500 cells/well, except Lovo, which were plated at 4,000 or 1,000 cells/well, respectively. The cells were incubated in DMSO (control) or a compound for 3 days at 37° C. under 5% CO2. A CELLTITER-GLO® reagent (100 μL) was then added to each well. After a 10 min incubation with shaking, luminescence was measured using an ENVISION® multimode plate reader.

[2] = tested on: SW48 cells (wt); assay: Cell viability assay (CellTiter-Glo), SW48 cells; conditions: Homo sapiens, 72 h; SW48 cells, 3 days incubation, CellTiter-Glo luminescence; read-out: Inhibition of Cancerous Cells IC50 SW48 (wt)
Procedure: as §1

[3] = tested on: H358 cells (G12C); assay: Cell viability assay (CellTiter-Glo), H358 cells; conditions: Homo sapiens, NCI-H358, 72 h; H358 cells, 3 days incubation, CellTiter-Glo luminescence; read-out: Inhibition of Cancerous Cells IC50 H358 (G12C)
Procedure: as §1

[4] = tested on: Lovo cells (G13D); assay: Cell viability assay (CellTiter-Glo), Lovo cells; conditions: Homo sapiens, 72 h; Lovo cells, 3 days incubation, CellTiter-Glo luminescence; read-out: Inhibition of Cancerous Cells IC50 Lovo (G13D)
Procedure: as §1

SMILES: CNCc1ccccc1-c1csc([C@@H](C)Nc2nc(C)nc3cc(OCCCCCCCN4CCC(c5cc6c(cc5F)C(=O)N(C5CCC(=O)NC5=O)C6)CC4)c(OC)cc23)c1 (stereo partly drawn) [Compound A25, 3-(6-Fluoro-5-(1-(7-((6-methoxy-2-methyl-4-(((R)-1-(4-(2-((methylamino)-methyl)phenyl)thiophen-2-yl)ethyl)amino)quinazolin-7-yl)oxy)heptyl)piperidin-4-yl)-1-oxoisoindolin-2-yl)piperidine-2,6-dione]
pIC50 [1]: 6.43
pIC50 [2]: 6.38
pIC50 [3]: 6.29
pIC50 [4]: 6.54

SMILES: CNCc1ccccc1-c1csc([C@H](C)Nc2nc(C)nc3cc(OCCCCCCCN4CCC(c5cc6c(cc5F)C(=O)N(C5CCC(=O)NC5=O)C6)CC4)c(OC)cc23)c1 (stereo partly drawn) [Compound A26, 3-(6-Fluoro-5-(1-(7-((6-methoxy-2-methyl-4-(((S)-1-(4-(2-((methylamino)-methyl)phenyl)thiophen-2-yl)ethyl)amino)quinazolin-7-yl)oxy)heptyl)piperidin-4-yl)-1-oxoisoindolin-2-yl)piperidine-2,6-dione]
pIC50 [1]: 6.40
pIC50 [2]: 6.38
pIC50 [3]: 6.24
pIC50 [4]: 6.44

SMILES: COc1cc2c(N[C@H](C)c3cccc(C(F)(F)CO)c3)nc(C)nc2cc1OCCCCCCCN1CCC(c2cc3c(cc2F)C(=O)N(C2CCC(=O)NC2=O)C3)CC1 (stereo partly drawn) [Compound A27, 3-(5-(1-(7-((4-(((R)-1-(3-(1,1-Difluoro-2-hydroxyethyl)phenyl)ethyl)amino)-6-methoxy-2-methylquinazolin-7-yl)oxy)heptyl)piperidin-4-yl)-6-fluoro-1-oxoisoindolin-2-yl)-piperidine-2,6-dione]
pIC50 [1]: 6.23
pIC50 [2]: 6.03
pIC50 [3]: 6.00
pIC50 [4]: 6.24

SMILES: COc1cc2c(N[C@H](C)c3cccc(Br)c3)nc(C)nc2cc1OCCCCCN1CCN(C(=O)COc2cc3c(cc2F)C(=O)N(C2CCC(=O)NC2=O)C3)CC1 (stereo partly drawn) [Compound A31, 3-(5-(2-(4-(5-((4-(((R)-1-(3-Bromophenyl)ethyl)amino)-6-methoxy-2-methyl-quinazolin-7-yl)oxy)pentyl)piperazin-1-yl)-2-oxoethoxy)-6-fluoro-1-oxoisoindolin-2-yl)-piperidine-2,6-dione]
pIC50 [1]: 5.31
pIC50 [2]: 6.29
pIC50 [3]: 5.35
pIC50 [4]: 6.64

Now from value to molecule:

pIC50 [1]: 6.24
pIC50 [2]: 5.48
pIC50 [3]: < 5.00
pIC50 [4]: 6.74
SMILES: COc1cc2c(N[C@H](C)c3cccc(Br)c3)nc(C)nc2cc1OCCCCCCC(=O)N1CCC(CN2CCN(c3cc4c(cc3F)C(=O)N(C3CCC(=O)NC3=O)C4=O)CC2)CC1 (stereo partly drawn) [Compound A33, 5-(4-((1-(7-((4-(((R)-1-(3-Bromophenyl)ethyl)amino)-6-methoxy-2-methyl-quinazolin-7-yl)oxy)heptanoyl)piperidin-4-yl)methyl)piperazin-1-yl)-2-(2,6-dioxopiperidin-3-yl)-6-fluoroisoindoline-1,3-dione]

pIC50 [1]: 6.19
pIC50 [2]: 5.47
pIC50 [3]: < 5.00
pIC50 [4]: 6.52
SMILES: COc1cc2c(N[C@H](C)c3cccc(Br)c3)nc(C)nc2cc1OCCCCCCCCC(=O)N1CCC(CN2CCN(c3cc4c(cc3F)C(=O)N(C3CCC(=O)NC3=O)C4=O)CC2)CC1 (stereo partly drawn) [Compound A34, 5-(4-((1-(9-((4-(((R)-1-(3-Bromophenyl)ethyl)amino)-6-methoxy-2-methyl-quinazolin-7-yl)oxy)nonanoyl)piperidin-4-yl)methyl)piperazin-1-yl)-2-(2,6-dioxopiperidin-3-yl)-6-fluoroisoindoline-1,3-dione]

pIC50 [1]: 5.60
pIC50 [2]: 5.39
pIC50 [3]: < 5.00
pIC50 [4]: 6.27
SMILES: COc1cc2c(N[C@H](C)c3cccc(Br)c3)nc(C)nc2cc1OCCCCCCCCCCC(=O)N1CCC(CN2CCN(c3cc4c(cc3F)C(=O)N(C3CCC(=O)NC3=O)C4=O)CC2)CC1 (stereo partly drawn) [Compound A35, 5-(4-((1-(11-((4-(((R)-1-(3-Bromophenyl)ethyl)amino)-6-methoxy-2-methyl-quinazolin-7-yl)oxy)undecanoyl)piperidin-4-yl)methyl)piperazin-1-yl)-2-(2,6-dioxopiperidin-3-yl)-6-fluoroisoindoline-1,3-dione]
